Where “and” joins values, the source holds several entries; their conditions need not be identical. Equal entries are not always repeated.
How the values were obtained:
[1] = test system: T. rubrum; experiment: Broth dilution antifungal susceptibility testing (CLSI M38-P), T. rubrum; type: cell-based, Trichophyton rubrum; conditions: for MIC versus T. rubrum: T. rubrum cultures
Method: (§1) Broth Dilution Antifungal Susceptibility Testing
(§2) The sensitivity of relevant fungal strains to the cyclized peptides was determined using Clinical Laboratory Standard Institute (CLSI; formerly NCCLS) Approved Standards. Fungal susceptibility was tested using “Reference Method for Broth Dilution Antifungal Susceptibility Testing of Filamentous Fungi; Approved Standard M38-P”, and yeast susceptibility was tested using “Reference Method for Broth Dilution Antifungal Susceptibility Testing of Yeasts; Approved Standard—Second Edition M27-A”.
T. rubrum susceptibility to peptides 1-8 was tested.

[2] = test system: T. interdigitale; experiment: Broth dilution antifungal susceptibility testing, T. interdigitale; type: cell-based, Trichophyton interdigitale; conditions: for Activity towards T. interdigitale: in words
Method: as §1, §2
T. interdigitale susceptibility to peptides 2-8 was tested. Peptides 2, 4 and 6 were active towards T. interdigitale.

[3] = test system: C. neoformans; experiment: Broth dilution antifungal susceptibility testing of yeasts (M27-A), C. neoformans; type: cell-based, Cryptococcus neoformans
Method: as §1, §2
C. neoformans susceptibility to peptides 4 and 6-8 was tested using “Reference Method for Broth Dilution Antifungal Susceptibility Testing of Yeasts; Approved Standard—Second Edition M27-A”.

[4] = test system: E. coli; experiment: Broth dilution antibacterial susceptibility testing (CLSI M7-A7), E. coli; type: cell-based; conditions: for MIC versus E. coli: growth over 16 hours at 37° C.
Method: (§3) Broth Dilution Antibacterial Susceptibility Testing
(§4) The sensitivity of relevant bacterial strains to the cyclized peptides was determined using Clinical Laboratory Standard Institute (CLSI; formerly NCCLS) Approved Standards. Bacterial susceptibility was tested using “Methods for Dilution Antimicrobial Susceptibility Tests for Bacteria That Grow […]; Approved Standard—Seventh Edition M7-A7”
(§5) Cultures of E. coli and Staphylococcus aureus were exposed to Peptide 1 and the MIC after growth over the following 16 hours at 37° C. was 1 mM for both organisms (Table 2).

[5] = test system: S. aureus; experiment: Broth dilution antibacterial susceptibility testing (CLSI M7-A7), S. aureus; type: cell-based, Staphylococcus aureus
Method: as §3, §4, §5

[6] = test system: T. mentagrophytes; experiment: Broth dilution antifungal susceptibility testing, T. mentagrophytes; type: cell-based, Trichophyton mentagrophytes
Method: as §1, §2

[7] = test system: M. furfur; experiment: Broth dilution antifungal susceptibility testing, M. furfur; type: cell-based, Malassezia furfur; conditions: M. furfur DSM6170
Method: as §1, §2

[8] = test system: S. brevicaulis; experiment: Broth dilution antifungal susceptibility testing, S. brevicaulis; type: cell-based, Scopulariopsis brevicaulis
Method: as §1, §2

[9] = test system: A. niger; experiment: Broth dilution antifungal susceptibility testing, A. niger; type: cell-based; conditions: A. niger NCPF2022
Method: as §1, §2

[10] = test system: A. terreus; experiment: Broth dilution antifungal susceptibility testing, A. terreus; type: cell-based; conditions: A. terreus NCPF2729
Method: as §1, §2

[11] = test system: Fusarium oxysporum; experiment: Broth dilution antifungal susceptibility testing, Fusarium oxysporum; type: cell-based; conditions: Fusarium oxysporum NCPF2722
Method: as §1, §2

[12] = test system: Fusarium spp; experiment: Broth dilution antifungal susceptibility testing, Fusarium spp; type: cell-based
Method: as §1, §2

[13] = test system: C. albicans; experiment: Broth dilution antifungal susceptibility testing of yeasts, C. albicans; type: cell-based
Method: as §1, §2

[14] = test system: C. krusei; experiment: Broth dilution antifungal susceptibility testing of yeasts, C. krusei; type: cell-based
Method: as §1, §2

[15] = test system: C. parapsilosis; experiment: Broth dilution antifungal susceptibility testing of yeasts, C. parapsilosis; type: cell-based
Method: as §1, §2

[16] = test system: Ps. aeruginosa; experiment: Broth dilution antibacterial susceptibility testing, Ps. aeruginosa; type: cell-based
Method: as §3, §4

[17] = test system: B. cepacia; experiment: Broth dilution antibacterial susceptibility testing, B. cepacia; type: cell-based, Burkholderia cepacia; conditions: B. cepacia ATCC25609
Method: as §3, §4

[18] = test system: P. acnes; experiment: Broth dilution antibacterial susceptibility testing, P. acnes; type: cell-based; conditions: P. acnes DSMZ1897
Method: as §3, §4

[19] = test system: S. epidermidis; experiment: Broth dilution antibacterial susceptibility testing, S. epidermidis; type: cell-based, Staphylococcus epidermidis; conditions: S. epidermidis ATCC12228
Method: as §3, §4

[20] = test system: C. difficile; experiment: Broth dilution antibacterial susceptibility testing, C. difficile; type: cell-based, Clostridium difficile; conditions: C. difficile NCTC11209
Method: as §3, §4

Substance: Cyclic-DR-DR-DR-DR-DR-DR-DR-G [Peptide 6]
- MIC versus T. rubrum [1]: 1000 µM
- MIC versus T. interdigitale [2]: 250 µM
- Activity towards T. interdigitale [2]: active
- MIC versus C. neoformans [3]: 500 µM

Substance: Cyclic-DK-DK-DK-DK-DK-DK-DK-G [Peptide 8]
- MIC versus T. rubrum [1]: > 4000 µM
- MIC versus T. interdigitale [2]: >4000 µM
- MIC versus C. neoformans [3]: 500 µM

Substance: Cyclic-DO-DO-DO-DO-DO-DO-DO-G [Peptide 7]
- MIC versus T. rubrum [1]: >4000 µM
- MIC versus T. interdigitale [2]: >4000 µM
- MIC versus C. neoformans [3]: 2000 µM

Substance: Cyclic-O-O-O-O-O-O-O-G [Peptide 5]
- MIC versus T. rubrum [1]: 4000 µM
- MIC versus T. interdigitale [2]: >4000 µM

Substance: Cyclic-R-R-R-R-R-R-R [Peptide 2]
- MIC ([1]; T. rubrum 7 Clinical Isolates): 500 to 1000 µM
- MIC ([1]; T. rubrum NCPF118): 250 µM
- MIC versus T. rubrum [1]: 250 µM and 200 µM
- MIC versus T. interdigitale [2]: <125 µM
- MIC ([2]; T. interdigitale NCPF335): <125 µM
- Activity towards T. interdigitale [2]: active
- MIC ([4]; E. coli NCTC12900): 100 µM
- MIC ([4]; E. coli, No strain designation): 100 µM
- MIC versus E. coli [4]: 100 µM
- MIC ([5]; S. aureus 16 Clinical Isolates): >3800 µM
- MIC ([5]; S. aureus ANS46, MRSA): 950 µM
- MIC ([5]; S. aureus ATCC12598): 950 µM
- MIC ([5]; S. aureus ATCC25923): >100 µM
- MIC ([5]; S. aureus Col, MRSA): 950 µM
- MIC ([5]; S. aureus MW2, MRSA): 950 µM
- MIC ([5]; S. aureus N315, MRSA): 950 µM
- MIC ([5]; S. aureus NCTC6571, MSSA): >1900 µM
- MIC ([5]; S. aureus NCTC8325): >1900 µM
- MIC ([5]; S. aureus NCTC10442, MRSA): 250 µM
- MIC ([5]; S. aureus NCTC10788): >1900 µM
- MIC ([5]; S. aureus, No strain designation): 250 µM
- MIC ([6]; T. mentagrophytes DM2006 978): 500 µM
- MIC ([6]; T. mentagrophytes DM2006 1023): 500 µM
- MIC [7]: 0.031 mM
- MIC ([8]; S. brevicaulis DM2006 1025): 500 µM
- MIC ([8]; S. brevicaulis NCPF2177): 500 µM
- MIC [9]: 500 µM
- MIC [10]: >2000 µM
- MIC [11]: >2000 µM
- MIC ([12]; Fusarium spp DM2006 294): >2000 µM
- MIC ([12]; Fusarium spp DM2006 495): >2000 µM
- MIC ([12]; Fusarium spp DM2006 1026): >2000 µM
- MIC ([13]; C. albicans AM2003-020): >2000 µM
- MIC ([13]; C. albicans ATCC24433): >2000 µM
- MIC ([13]; C. albicans ATCC90028): >2000 µM
- MIC ([13]; C. albicans IHEM3742): >2000 µM
- MIC ([13]; C. albicans NCTC3179): >2000 µM
- MIC ([13]; C. albicans s20122.073): >2000 µM
- MIC ([14]; C. krusei ATCC6258): 125 µM
- MIC ([14]; C. krusei NCPT3953): 128 to 256 µM
- MIC ([15]; C. parapsilosis ATCC22019): 250 µM
- MIC ([15]; C. parapsilosis ATCC90018): 1000 µM
- MIC ([16]; Ps. aeruginosa ATCC27853 (first entry, r42)): >1900 µM
- MIC ([16]; Ps. aeruginosa ATCC27853 (second entry, r44)): >2000 µM
- MIC ([16]; Ps. aeruginosa DSM50071): >2000 µM
- MIC [17]: >1900 µM
- MIC [18]: 125 µM
- MIC [19]: 25 µM
- MIC [20]: >2000 µM

Substance: Cyclic-K-K-K-K-K-K-K [Peptide 1]
- MIC versus T. rubrum [1]: 100 µM
- MIC versus E. coli [4]: 1000 µM
- MIC versus S. aureus ([5]; growth over 16 hours at 37° C.): 1000 µM

Substance: Cyclic-K-K-K-K-K-K-K-G [Peptide 3]
- MIC versus T. rubrum [1]: 4000 µM
- MIC versus T. interdigitale [2]: >4000 µM

Substance: Cyclic-R-R-R-R-R-R-R-G [Peptide 4]
- MIC versus T. rubrum [1]: 2000 µM
- MIC versus T. interdigitale [2]: 500 µM
- Activity towards T. interdigitale [2]: active
- MIC versus C. neoformans [3]: 1000 µM

Source: patent US9181303B2, “Treatment of bacterial infections with cyclic antimicrobial peptides” (N[…], priority 2005, dated 2015)
